Among the data in patent US7189731B2, “Substituted 7-azaquinazoline compounds useful as p38 kinase inhibitors” (Roche Palo Alto LLC, priority 2003, dated 2007) are IC50 and melting point values, retold here.

A word on the IC50: it is the concentration that gives 50% inhibition. As usually defined, the melting point is the temperature, or range, at which the solid turns liquid.

Data set [1] concerns the target T1, p38 MAP kinase (Homo sapiens, UniProt Q16539).
T1 construct: made in house; host or cells: E. coli (co-expressed with SEK-1 and MEKK)
Put plainly: Inhibition of p38 (MAP) Kinase-In Vitro Assay. The class given is biochemical. The conditions noted are these: approximate p38 inhibitory activities; concentration causing 50% inhibition of the p38 enzyme; γ-33P-ATP transfer to MBP; read-out: IC50 μM (P38 MAP KINASE E-03). The protocol:
The p-38 MAP kinase inhibitory activity of compounds of this invention in vitro was determined by measuring the transfer of the y-phosphate from γ-^33P-ATP by p38 kinase to Myelin Basic Protein (MBP), using the a minor modification of the method described in Ahn et al., J. Biol. Chem., Vol. 266 (7), 4220–4227 (1991).
The phosphorylated form of the recombinant p38 MAP kinase was expressed with SEK-1 and MEKK in E. Coli (see Khokhlatchev et al., J. Biol. Chem. Vol. 272(17), pp. 11057–11062 (1997)), and then purified by affinity chromatography using a Nickel column.
The phosphorylated p38 MAP kinase was diluted in kinase buffer (20 mM 3-(N-morpholino)propanesulfonic acid, pH 7.2, 25 mM β-glycerol phosphate, 5 mM ethylene glycol-bis(beta-aminoethyl ether)-N,N,N′,N′-tetraacetic acid, 1 mM sodium vanadate, 1 mM dithiothreitol, 40 mM magnesium chloride). Test compound dissolved in DMSO or only DMSO (control) was added, and the samples were incubated for 10 min. at 30° C. The kinase reaction was initiated by the addition of a substrate cocktail containing MBP and γ-^33P-ATP. After incubating for an additional 20 min. at 30° C., the reaction was terminated by adding 0.75% phosphoric acid. The phosphorylated MBP was then separated from the residual γ-^33P-ATP using a phosphocellulose membrane (Millipore, Bedfrod, Mass.) and quantitated using a scintillation counter (Packard, Meriden, Conn.).

T1 sequence (Q16539 whole entry): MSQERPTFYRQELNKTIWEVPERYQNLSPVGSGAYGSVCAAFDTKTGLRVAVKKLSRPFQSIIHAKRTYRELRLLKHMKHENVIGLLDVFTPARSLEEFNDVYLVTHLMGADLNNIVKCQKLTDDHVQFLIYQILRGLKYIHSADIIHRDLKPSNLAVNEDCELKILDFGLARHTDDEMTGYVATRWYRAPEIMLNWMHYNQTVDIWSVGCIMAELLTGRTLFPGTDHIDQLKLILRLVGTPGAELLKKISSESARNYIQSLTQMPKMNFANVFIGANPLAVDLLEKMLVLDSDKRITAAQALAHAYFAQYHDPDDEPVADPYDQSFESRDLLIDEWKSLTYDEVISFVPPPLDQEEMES

Turning to `CS(=O)(=O)N1CCC(Nc2ncc3cc(Oc4ccc(F)cc4F)ncc3n2)CC1` [Example 1, [6-(2,4-Difluoro-phenoxy)-pyrido[3,4-d]pyrimidin-2-yl]-(1-methanesulfonyl-piperidin-4-yl)-amine], the melting point was 209.9 to 211.9 °C. The IC50 in data set [1] is under 0.05 µM. As to `CC(C)Nc1ncc2cc(Oc3ccc(F)cc3F)ncc2n1` [Example 2, [6-(2,4-Difluoro-phenoxy)-pyrido[3,4-d]py-rimidin-2-yl]-iso-propyl-amine], the concentration for half-maximal inhibition (IC50) in data set [1] was under 0.5 µM. On the same count and under the same terms, the value for `Fc1ccc(Oc2cc3cnc(NC4CCOCC4)nc3cn2)c(F)c1` [Example 4, [6-(2,4-Difluoro-phenoxy)-pyrido[3,4-d]py-rimidin-2-yl]-(tet-rahydro-pyran-4-yl)-amine] was under 0.3 µM.
